These results are taken from PubChem BioAssay (NCI).

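Results reflect a 48-hour exposure of cells in 96-well plates to compound at five concentrations. GI50 marks 50% less growth. TGI: concentration producing complete growth inhibition.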

The subject of the first experiment is HL-60(TB) leukemia. The experiment can be described thus: NCI tumour cell line growth inhibition, 48 h.
For the compound `CCn1c(-c2nonc2N)nc2ccncc21`, the GI50 is over 25 µM and the TGI was over 25 µM.

As to `CC(C)[O-].CC(C)[O-].CN(CCN(C)Cc1cc(F)cc(F)c1[O-])Cc1cc(F)cc(F)c1[O-].[Ti+4]`, the GI50 was 1.51 µM and the TGI was over 40.8 µM.

Regarding `CSc1ccc(N(C)c2nc(C)nc3c2CCC3)cc1`, the GI50 is under 0.01 µM and the TGI is under 0.01 µM.

On to `O=C1/C(=C/c2ccc([N+](=O)[O-])cc2)COc2ccc(O)cc21`, for which the GI50 was 2.48 µM and the TGI was 7.92 µM.

In the case of `COc1ccc(-c2cnoc2-c2cc(OC)c3c(c2)OCCO3)cc1`, the GI50 was 0.0289 µM and the TGI worked out at 0.975 µM.

Take `CC(=O)n1c(=O)c2cc3c(=O)n(-c4cccc(C#N)c4)c(=O)c3cc2c1=O`: the TGI is over 100 µM.

`COc1ccc(C2Oc3c(c(O)cc4c3[C@H](c3ccc(O)cc3O)[C@H](O)C(c3ccc(O)c(O)c3)O4)C[C@@H]2O)cc1O` (some centres not stated) yielded a TGI of over 100 µM.

For the compound `CC(C)Oc1ccc(C(=O)Cn2ccnc2)cc1-n1c(CN2CCN(C(=O)COc3ccc(Cl)cc3)CC2)nc2ccccc2c1=O`, the GI50 was 2.3 µM and the TGI worked out at 27.7 µM.

As to `COc1cccc(COc2cc(-n3cnc4ccccc43)sc2C(N)=O)c1`, the GI50 was 6.03 µM and the TGI is over 25 µM.

Regarding `CCN(CC)c1ccc(/C=C/C2=[N+](C)c3ccccc3C2(C)C)c(C)c1`, the GI50 was 0.0367 µM and the TGI came to 0.138 µM.

The compound `CCOC(OC1=C(C#N)CCCC1)C(CC)[Se]c1ccccc1` (configuration not stated) displayed a TGI of 42.9 µM.

Regarding `Fc1ccc2nc(-c3cc(-c4ccc5c(c4)OCO5)n[nH]3)[nH]c2c1`, the GI50 is 3.09 µM and the TGI stood at 55.5 µM.

For the compound `COC(=O)c1ccc2c(c1)C(=O)c1c-2n(CCCN=[N+]=[N-])c(=O)c2cc([N+](=O)[O-])ccc12`, the GI50 was over 100 µM and the TGI was over 100 µM.

The compound `C=C1C(=O)C23C(O)C1CC[C@H]2C12CCCC(C)(COC(C)=O)[C@H]1[C@H](O)[C@]3(O)OC2` (some centres not stated) gave a TGI of 1.04 µM.

In turn, `CN(C)C(=S)Nc1nnc(Nc2ccccc2)s1` had a TGI of over 100 µM.

For the compound `COc1ccc(C2=C(N3CCc4ccccc43)C(=O)NC2=O)cc1`, the GI50 is over 21.1 µM and the TGI is over 25 µM.

With `O=[N+]([O-])c1ccc(-c2cc3c(Nc4ccc(Cl)c(C(F)(F)F)c4)ncnc3s2)cc1`, the GI50 was 0.906 µM and the TGI was 3.62 µM.

The subject of a further experiment is HCT-15 colon. The experiment can be described thus: NCI tumour cell line growth inhibition, 48 h.
With `CCn1c(-c2nonc2N)nc2ccncc21`, the GI50 is over 25 µM and the TGI is over 25 µM.

As for `CC(C)[O-].CC(C)[O-].CN(CCN(C)Cc1cc(F)cc(F)c1[O-])Cc1cc(F)cc(F)c1[O-].[Ti+4]`, the GI50 is 0.526 µM and the TGI was found to be 15.1 µM.

`CSc1ccc(N(C)c2nc(C)nc3c2CCC3)cc1`: the GI50 is under 0.01 µM and the TGI was over 100 µM.

For the compound `O=C1/C(=C/c2ccc([N+](=O)[O-])cc2)COc2ccc(O)cc21`, the GI50 is 2.24 µM and the TGI is 7.61 µM.

For `COc1ccc(-c2cnoc2-c2cc(OC)c3c(c2)OCCO3)cc1`, the GI50 was 0.0258 µM and the TGI stood at 28.1 µM.

As for `CC(=O)n1c(=O)c2cc3c(=O)n(-c4cccc(C#N)c4)c(=O)c3cc2c1=O`, the TGI was over 100 µM.

In the case of `COc1ccc(C2Oc3c(c(O)cc4c3[C@H](c3ccc(O)cc3O)[C@H](O)C(c3ccc(O)c(O)c3)O4)C[C@@H]2O)cc1O` (some centres not stated), the TGI is over 100 µM.

For the compound `CC(C)Oc1ccc(C(=O)Cn2ccnc2)cc1-n1c(CN2CCN(C(=O)COc3ccc(Cl)cc3)CC2)nc2ccccc2c1=O`, the GI50 was 12.3 µM and the TGI was found to be 32.6 µM.

Regarding `COc1cccc(COc2cc(-n3cnc4ccccc43)sc2C(N)=O)c1`, the GI50 is over 25 µM and the TGI is over 25 µM.

As for `CCN(CC)c1ccc(/C=C/C2=[N+](C)c3ccccc3C2(C)C)c(C)c1`, the GI50 was 0.321 µM and the TGI was found to be 10.9 µM.

In turn, `CCOC(OC1=C(C#N)CCCC1)C(CC)[Se]c1ccccc1` (configuration not stated) gave a TGI of 33 µM.

For the compound `Fc1ccc2nc(-c3cc(-c4ccc5c(c4)OCO5)n[nH]3)[nH]c2c1`, the GI50 is 3.27 µM and the TGI is over 42.4 µM.

Regarding `COC(=O)c1ccc2c(c1)C(=O)c1c-2n(CCCN=[N+]=[N-])c(=O)c2cc([N+](=O)[O-])ccc12`, the GI50 was over 100 µM and the TGI is over 100 µM.

As for `C=C1C(=O)C23C(O)C1CC[C@H]2C12CCCC(C)(COC(C)=O)[C@H]1[C@H](O)[C@]3(O)OC2` (some centres not stated), the TGI was found to be 2.37 µM.

`CN(C)C(=S)Nc1nnc(Nc2ccccc2)s1`: the TGI was over 100 µM.

`COc1ccc(C2=C(N3CCc4ccccc43)C(=O)NC2=O)cc1`: the GI50 was over 25 µM and the TGI was over 25 µM.

As to `O=[N+]([O-])c1ccc(-c2cc3c(Nc4ccc(Cl)c(C(F)(F)F)c4)ncnc3s2)cc1`, the GI50 is 1.01 µM and the TGI is over 100 µM.

The test system of another experiment is SNB-75 CNS. As to the kind of experiment: NCI tumour cell line growth inhibition, 48 h.
Take `CCn1c(-c2nonc2N)nc2ccncc21`: the GI50 is over 25 µM and the TGI was over 25 µM.

For the compound `CC(C)[O-].CC(C)[O-].CN(CCN(C)Cc1cc(F)cc(F)c1[O-])Cc1cc(F)cc(F)c1[O-].[Ti+4]`, the GI50 was 0.517 µM and the TGI worked out at 2.52 µM.

Take `CSc1ccc(N(C)c2nc(C)nc3c2CCC3)cc1`: the GI50 is under 0.01 µM and the TGI amounted to 42.1 µM.

For `O=C1/C(=C/c2ccc([N+](=O)[O-])cc2)COc2ccc(O)cc21`, the GI50 was over 100 µM and the TGI is over 100 µM.

On to `COc1ccc(-c2cnoc2-c2cc(OC)c3c(c2)OCCO3)cc1`, for which the GI50 was 0.0195 µM and the TGI stood at 34.4 µM.

Consider `CC(=O)n1c(=O)c2cc3c(=O)n(-c4cccc(C#N)c4)c(=O)c3cc2c1=O`, for which the TGI is 54.6 µM.

The compound `COc1ccc(C2Oc3c(c(O)cc4c3[C@H](c3ccc(O)cc3O)[C@H](O)C(c3ccc(O)c(O)c3)O4)C[C@@H]2O)cc1O` (some centres not stated) returned a TGI of over 100 µM.

As for `CC(C)Oc1ccc(C(=O)Cn2ccnc2)cc1-n1c(CN2CCN(C(=O)COc3ccc(Cl)cc3)CC2)nc2ccccc2c1=O`, the GI50 is 5.49 µM and the TGI worked out at 32.2 µM.
